Measurements from patent US6995187B1, “Peripheral cannabinoid receptor (CB2) selective ligands” (University of Connecticut, priority 1999, dated 2006).

How the values were obtained:
CB2 receptor = target: T1, CB2 receptor (Mus musculus, UniProt P47936); assay: CB2 receptor binding assay ([3H] CP-55,940 displacement, mouse spleen membranes); details: 0.8 nM [3H] CP-55,940, read-out: CB2 affinity
T1 construct: membranes were prepared from frozen mouse spleen; from tissue; host or cells: mouse spleen
Description: (§1) As used herein, “binding affinity” is represented by the IC50 value which is the concentration of an analog required to occupy the 50% of the total number (Bmax) of the receptors. The lower the IC50 value, the higher the binding affinity. […] The binding affinities (Ki) are expressed in nanomoles (nM).
(§2) Membranes, previously frozen at −80° C., were thawed on ice. To the stirred suspension was added three volumes of TME (25 mM Tris-HCl buffer, 5 mM MgCl2 and 1 mM EDTA) at a pH 7.4. The suspension was incubated at 4° C. for 30 min. At the end of the incubation, the membranes were pelleted and washed three times with TME.
The treated membranes were subsequently used in the binding assay described below. Approximately 30 μg of membranes were incubated in silanized 96-well microtiter plate with TME containing 0.1% essentially fatty acid-free bovine serum albumin (BSA), 0.8 nM [^3H] […] Radioactivity was detected using MicroScint 20 scintillation cocktail added directly to the dried filterplates, and the filterplates were counted using a Packard Instruments Top-Count. Nonspecific binding was assessed using 100 nM CP-55,940. […] CP-55,940, determined using buffer and 100 nM CP-55,940. The normalized data was analyzed using a 4-parameter nonlinear logistic equation to yield IC50 values. […]

CB1 receptor = target: T2, CB1 receptor (Rattus norvegicus, UniProt P20272); assay: CB1 receptor binding assay ([3H] CP-55,940 displacement, rat forebrain membranes); details: CB2 (mouse spleen) versus CB1 (rat forebrain) binding affinity
T2 construct: membranes were prepared from rat forebrain membranes; from tissue; host or cells: rat forebrain
Description: as §1
The above articles are incorporated by reference herein.
as §2
The treated membranes were subsequently used in the binding assay described below. Approximately 30 μg of membranes were incubated in silanized 96-well microtiter plate with TME containing 0.1% essentially fatty acid-free bovine serum albumin (BSA), 0.8 nM [^3H] […] Radioactivity was detected using MicroScint 20 scintillation cocktail added directly to the dried filterplates, and the filterplates were counted using a Packard Instruments Top-Count. Nonspecific binding was assessed using 100 nM CP-55,940. […] CP-55,940, determined using buffer and 100 nM CP-55,940. The normalized data was analyzed using a 4-parameter nonlinear logistic equation to yield IC50 values.

[1] = test system: paw-withdrawal latency to radiant heat in male Sprague-Dawley rats; assay: Cannabinoid mediated antinociception: paw-withdrawal latency to a thermal nociceptive stimulus (Hargreaves method); format: in vivo; details: rat, subcutaneous injection in plantar surface of hindpaw, in DMSO, 50 μl; FIGS. 1–13
Description: Cannabinoid Mediated Antinociception.
Method. Male Sprague-Dawley rats (Harlan; Indianapolis, Ind.) 200–300 grams at time of testing, were maintained in a climate-controlled room on a 12-h light/dark cycle (lights on at 06:00 h) and food and water were available ad libitum. All of the testing was performed in accordance with the policies and recommendations of the International Association for the Study of Pain (IASP) and the National Institutes of Health (NIH) guidelines for the handling and use of laboratory animals and received approval from the Institutional Animal Care and Use Committee (IACUC) of the University of Arizona.
All drugs were dissolved in dimethyl sulfoxide (DMSO) and were injected subcutaneously in the plantar surface of the hindpaw in a total volume of 50 μl. DMSO given in hindpaw at this volume had no effect. The method of Hargreaves, K.; Dubner, R.; Brown, F.; Flores, C.; and Joris, J., A New Sensitive Method for Measuring Thermal Nociception in Cutaneous Hyperalgesia. […] Paw-withdrawal latency was determined by a photocell that halted both lamp and timer when the paw was withdrawn. The latency to withdrawal of the paw from the radiant heat source was determined both before and after drug or vehicle administration. […]

T1 sequence (P47936 whole entry): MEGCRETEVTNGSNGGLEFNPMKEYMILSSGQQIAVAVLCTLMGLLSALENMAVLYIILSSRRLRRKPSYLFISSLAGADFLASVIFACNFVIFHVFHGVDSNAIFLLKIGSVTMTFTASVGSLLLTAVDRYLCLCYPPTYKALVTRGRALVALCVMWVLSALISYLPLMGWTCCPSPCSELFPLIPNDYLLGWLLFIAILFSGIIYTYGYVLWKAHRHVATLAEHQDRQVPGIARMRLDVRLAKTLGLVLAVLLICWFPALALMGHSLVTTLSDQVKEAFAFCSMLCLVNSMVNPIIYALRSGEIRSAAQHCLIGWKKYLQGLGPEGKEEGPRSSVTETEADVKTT
T2 sequence (P20272 whole entry): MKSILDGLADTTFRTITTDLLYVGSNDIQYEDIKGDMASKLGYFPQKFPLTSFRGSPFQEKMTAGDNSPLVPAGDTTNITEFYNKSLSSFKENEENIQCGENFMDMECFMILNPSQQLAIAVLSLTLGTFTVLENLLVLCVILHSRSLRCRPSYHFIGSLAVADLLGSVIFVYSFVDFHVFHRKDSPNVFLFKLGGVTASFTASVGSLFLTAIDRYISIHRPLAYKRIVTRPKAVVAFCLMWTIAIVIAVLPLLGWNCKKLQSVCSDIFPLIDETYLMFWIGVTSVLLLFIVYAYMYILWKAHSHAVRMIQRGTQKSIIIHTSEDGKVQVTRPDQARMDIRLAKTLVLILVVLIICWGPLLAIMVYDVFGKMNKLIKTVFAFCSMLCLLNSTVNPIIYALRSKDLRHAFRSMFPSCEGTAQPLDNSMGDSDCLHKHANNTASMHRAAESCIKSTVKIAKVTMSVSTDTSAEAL

| Structure (SMILES) | Ki (CB2 receptor) | CB2 selectivity over CB1 (CB1 receptor) | physiological effects in test animals including analgesia [1] |
| --- | --- | --- | --- |
| CCCCCCC(C)(C)c1cc(O)c2c(c1)oc(=O)c1ccc(OC)cc12 [AM1710, 3-(1,1-Dimethylheptyl)-1-hydroxy-9-methoxy-6H-dibenzo[b,d]pyran-6-one] | 0.49 nM | ~750 fold |  |
| CCCCCCC(C)(C)c1cc(O)c2c(c1)oc(=O)c1ccc(O)cc12 [AM1714, 3-(1,1-Dimethylheptyl)-1,9-dihydroxy-6H-dibenzo[b,d]pyran-6-one] |  |  | produced notable physiological effects in test animals including analgesia |
